Data published in patent US20060069132A1, “Azolecarboxamide herbicides” (priority 2004, published 2006).
Like-named read-outs stand apart in the source and are kept apart here.

What was measured:
[1] = system: smallflower umbrella sedge; assay: Test C flooded paddy test; assay type: in vivo, Cyperus difformis; conditions: Cyperus difformis; for pest or weed control at 62 g/ha: 62 g ai/ha; for pest or weed control at 125 g/ha: 125 g ai/ha; for pest or weed control at 250 g/ha: 250 g ai/ha, scale of 0 to 100, 0 is no effect, 100 is complete control; for pest or weed control at 500 g/ha: 500 g ai/ha, visual rating after 12 to 14 days, read-out: Plant response rating, Sedge, Umbrella
barnyardgrass = assay: Test A pre-/postemergence herbicide test; assay type: in vivo, Echinochloa crus-galli; conditions: Echinochloa crus-galli, 240 h; for pest or weed control at 500 g/ha: 500 g ai/ha; for pest or weed control at 2000 g/ha: 2000 g ai/ha
How it was run: (§1)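 Both application timings were run together: directed soil spray over freshly planted seeds in sandy loam, and runoff spray onto 2–10 cm seedlings. Evaluation after ~10 days in greenhouse used a 0–100 visual scale versus untreated controls.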

rice = assay: Test C flooded paddy test; assay type: in vivo, Oryza sativa; conditions: Oryza sativa; for plant injury at 62 g/ha: 62 g ai/ha; for plant injury at 125 g/ha: 125 g ai/ha; for plant injury at 250 g/ha: 250 g ai/ha, scale of 0 to 100, 0 is no effect, 100 is complete control; for plant injury at 500 g/ha: 500 g ai/ha, visual rating after 12 to 14 days, read-out: Plant response rating, Rice
How it was run: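 Postemergence sprays applied to plants 2 to 18 cm tall (1- to 4-leaf stage); paddy species grown to 2-leaf stage under flooding. After 12 to 14 days in greenhouse, visual rating versus untreated controls on 0–100 scale (0 no effect, 100 complete control).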

giant foxtail [2] = assay: Test C pre-/postemergence herbicide test; assay type: in vivo, Setaria faberi; conditions: Setaria faberi, pre-emergence, 312 h, read-out: Plant response rating, Foxtail, Giant; for pest or weed control at 62 g/ha: 62 g ai/ha, preemergence, scale 0 to 100; for pest or weed control at 125 g/ha: 125 g ai/ha, scale 0 (no effect) to 100 (complete control); for pest or weed control at 125 g/ha / pest or weed control at 500 g/ha: visual, 12 to 14 days; for pest or weed control at 250 g/ha: 250 g ai/ha, scale 0-100; for pest or weed control at 500 g/ha: 500 g ai/ha, scale 0 to 100 (0 no effect, 100 complete control)
How it was run: (§2)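 Emerged plants at the 1- to 4-leaf stage (2–18 cm), or freshly planted seeds, received test chemicals in a non-phytotoxic solvent mixture with surfactant. Response was visually scored against controls after 12 to 14 days in the greenhouse, on a 0 (no effect) to 100 (complete control) scale.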

kochia = assay: Test C pre-/postemergence herbicide test; assay type: in vivo, Kochia scoparia; conditions: Bassia scoparia, pre-emergence, read-out: Plant response rating, Kochia; for pest or weed control at 62 g/ha: 62 g ai/ha, preemergence, scale 0 to 100; for pest or weed control at 125 g/ha: 125 g ai/ha, scale 0 (no effect) to 100 (complete control); for pest or weed control at 125 g/ha / pest or weed control at 500 g/ha: visual, 12 to 14 days; for pest or weed control at 250 g/ha: 250 g ai/ha, scale 0-100; for pest or weed control at 500 g/ha: 500 g ai/ha, scale 0 to 100 (0 no effect, 100 complete control)
How it was run: as §2

common ragweed = assay: Test C pre-/postemergence herbicide test; assay type: in vivo, Ambrosia elatior; conditions: Ambrosia artemisiifolia, pre-emergence, read-out: Plant response rating, Ragweed; for pest or weed control at 62 g/ha: 62 g ai/ha, preemergence, scale 0 to 100; for pest or weed control at 250 g/ha: 250 g ai/ha, scale 0-100; for pest or weed control at 500 g/ha: 500 g ai/ha, scale 0 to 100 (0 no effect, 100 complete control), visual, 12 to 14 days
How it was run: as §2

large crabgrass = assay: Test A pre-/postemergence herbicide test; assay type: in vivo, Digitaria sanguinalis; conditions: Digitaria sanguinalis, 240 h; for pest or weed control at 500 g/ha: 500 g ai/ha; for pest or weed control at 2000 g/ha: 2000 g ai/ha
How it was run: as §1

corn = assay: Test C pre-/postemergence herbicide test; assay type: in vivo, Zea mays; conditions: Zea mays, pre-emergence, 312 h; for Corn plant response rating (crop injury, 0 = no effect, 100 = complete kill) at 62 g/ha: 62 g ai/ha, preemergence, scale 0 to 100; for Corn plant response rating (crop injury, 0 = no effect, 100 = complete kill) at 125 g/ha: 125 g ai/ha, scale 0 (no effect) to 100 (complete control); for Corn plant response rating (crop injury, 0 = no effect, 100 = complete kill) at 125 g/ha / Corn plant response rating (crop injury, 0 = no effect, 100 = complete kill) at 500 g/ha: visual, 12 to 14 days; for Corn plant response rating (crop injury, 0 = no effect, 100 = complete kill) at 250 g/ha: 250 g ai/ha, scale 0-100; for Corn plant response rating (crop injury, 0 = no effect, 100 = complete kill) at 500 g/ha: 500 g ai/ha, scale 0 to 100 (0 no effect, 100 complete control)
How it was run: as §2

giant foxtail [3] = assay: Test A pre-/postemergence herbicide test; assay type: in vivo, Setaria faberi; conditions: Setaria faberi, 240 h; for pest or weed control at 500 g/ha: 500 g ai/ha; for pest or weed control at 2000 g/ha: 2000 g ai/ha
How it was run: as §1

johnsongrass = assay: Test C pre-/postemergence herbicide test; assay type: in vivo, Sorghum halepense; conditions: Sorghum halepense, pre-emergence, read-out: Plant response rating, Johnsongrass; for pest or weed control at 62 g/ha: 62 g ai/ha, preemergence, scale 0 to 100; for pest or weed control at 125 g/ha: 125 g ai/ha, scale 0 (no effect) to 100 (complete control); for pest or weed control at 125 g/ha / pest or weed control at 500 g/ha: visual, 12 to 14 days; for pest or weed control at 250 g/ha: 250 g ai/ha, scale 0-100; for pest or weed control at 500 g/ha: 500 g ai/ha, scale 0 to 100 (0 no effect, 100 complete control)
How it was run: as §2

[4] = scale 0 to 100 (0 no effect, 100 complete control), read-out: Sedge, Umbrella plant response rating
[5] = read-out: Sedge, Umbrella plant response rating
[6] = scale 0 to 100 (0 no effect, 100 complete control)
[7] = post-emergence, Postemergence, 0 to 100 scale, 0 no effect, 100 complete control, read-out: Barnyardgrass plant response rating
[8] = post-emergence, Postemergence, 0 to 100 scale, 0 no effect, 100 complete control, read-out: Plant response rating, Barnyardgrass
[9] = pre-emergence, Preemergence, visual rating, 0 to 100 scale (0 no effect, 100 complete control), read-out: Barnyardgrass plant response rating
[10] = pre-emergence, preemergence, visual injury, 0 to 100 scale (0 no effect, 100 complete control), read-out: Barnyardgrass plant response rating
[11] = scale 0 to 100 (0 no effect, 100 complete control), read-out: Rice plant response rating
[12] = read-out: Rice plant response rating
[13] = post-emergence, Postemergence, 0 to 100 scale, 0 no effect, 100 complete control, read-out: Crabgrass, Large plant response rating
[14] = post-emergence, Postemergence, 0 to 100 scale, 0 no effect, 100 complete control, read-out: Plant response rating, Crabgrass, Large
[15] = pre-emergence, Preemergence, visual rating, 0 to 100 scale (0 no effect, 100 complete control), read-out: Crabgrass, Large plant response rating
[16] = pre-emergence, preemergence, visual injury, 0 to 100 scale (0 no effect, 100 complete control), read-out: Crabgrass, Large plant response rating
[17] = post-emergence, Postemergence, 0 to 100 scale, 0 no effect, 100 complete control, read-out: Foxtail, Giant plant response rating
[18] = post-emergence, Postemergence, 0 to 100 scale, 0 no effect, 100 complete control, read-out: Plant response rating, Foxtail, Giant
[19] = pre-emergence, Preemergence, visual rating, 0 to 100 scale (0 no effect, 100 complete control), read-out: Foxtail, Giant plant response rating
[20] = pre-emergence, preemergence, visual injury, 0 to 100 scale (0 no effect, 100 complete control), read-out: Foxtail, Giant plant response rating

SMILES | pest or weed control at 125 g/ha [1, 4] | pest or weed control at 250 g/ha [1, 5] | pest or weed control at 500 g/ha [1, 6] | pest or weed control at 500 g/ha (barnyardgrass; [7]) | pest or weed control at 2000 g/ha (barnyardgrass; [8]) | pest or weed control at 2000 g/ha (barnyardgrass; [9]) | pest or weed control at 500 g/ha (barnyardgrass; [10]) | plant injury at 125 g/ha (rice; [11]) | plant injury at 250 g/ha (rice; [12]) | plant injury at 500 g/ha (rice; [6]) | pest or weed control at 62 g/ha (giant foxtail [2]) | pest or weed control at 125 g/ha (giant foxtail [2]) | pest or weed control at 250 g/ha (giant foxtail [2]) | pest or weed control at 500 g/ha (giant foxtail [2]) | pest or weed control at 62 g/ha (kochia) | pest or weed control at 125 g/ha (kochia) | pest or weed control at 250 g/ha (kochia) | pest or weed control at 500 g/ha (kochia) | pest or weed control at 62 g/ha (common ragweed) | pest or weed control at 250 g/ha (common ragweed) | other results
CCc1nn(C(C)(C)C)cc1C(=O)Nc1cc(C(=O)N(C)C)ccc1F [Compound 222, N-[5-[(dimethylamino)carbonyl]-2-fluorophenyl]-1-(1,1-dimethylethyl)-3-ethyl-1H-pyrazole-4-carboxamide] | 75% | 85% | 90% | 75% | 90% | 100% | 95% | 70% | 85% | 85% | 20% | 85% | 95% | 100% | 90% | 100% | 100% | 100% | 80% | 100% | pest or weed control at 62 g/ha [1, 4]: 65%; plant injury at 62 g/ha (rice; [11]): 30%; pest or weed control at 500 g/ha (common ragweed): 100%; pest or weed control at 500 g/ha (large crabgrass; [13]): 80%; pest or weed control at 2000 g/ha (large crabgrass; [14]): 85%; pest or weed control at 2000 g/ha (large crabgrass; [15]): 95%; pest or weed control at 500 g/ha (large crabgrass; [16]): 100%; Corn plant response rating (crop injury, 0 = no effect, 100 = complete kill) at 62 g/ha (corn): 0%; Corn plant response rating (crop injury, 0 = no effect, 100 = complete kill) at 125 g/ha (corn): 20%; Corn plant response rating (crop injury, 0 = no effect, 100 = complete kill) at 250 g/ha (corn): 60%; Corn plant response rating (crop injury, 0 = no effect, 100 = complete kill) at 500 g/ha (corn): 100%; pest or weed control at 500 g/ha (giant foxtail [3]; [17]): 65%; pest or weed control at 2000 g/ha (giant foxtail [3]; [18]): 85%; pest or weed control at 2000 g/ha (giant foxtail [3]; [19]): 100%; pest or weed control at 500 g/ha (giant foxtail [3]; [20]): 95%; pest or weed control at 62 g/ha (johnsongrass): 85%; pest or weed control at 125 g/ha (johnsongrass): 100%; pest or weed control at 250 g/ha (johnsongrass): 100%; pest or weed control at 500 g/ha (johnsongrass): 100%
CCN1N=C(C(C)(C)C)CC1C(=O)Nc1cc(C(=O)N(C)C)ccc1F (stereo not drawn) [Compound 268, N-[5-[(dimethylamino)carbonyl]-2-fluorophenyl]-3-(1,1-dimethylethyl)-1-ethyl-4,5-dihydro-1H-pyrazole-5-carboxamide] | 70% | 80% | 95% | 80% | 80% | 100% | 100% | 85% | 90% | 90% | 80% | 95% | 95% | 100% | 100% | 100% | 100% | 100% | 70% | 100% | pest or weed control at 62 g/ha ([1]; scale 0 to 100, read-out: Sedge, Umbrella plant response rating): 55%; plant injury at 62 g/ha (rice; scale 0 to 100, read-out: Rice plant response rating): 75%; pest or weed control at 500 g/ha (common ragweed): 100%; pest or weed control at 500 g/ha (large crabgrass; [13]): 50%; pest or weed control at 2000 g/ha (large crabgrass; [14]): 75%; pest or weed control at 2000 g/ha (large crabgrass; [15]): 100%; pest or weed control at 500 g/ha (large crabgrass; [16]): 85%; Corn plant response rating (crop injury, 0 = no effect, 100 = complete kill) at 62 g/ha (corn): 10%; Corn plant response rating (crop injury, 0 = no effect, 100 = complete kill) at 125 g/ha (corn): 45%; Corn plant response rating (crop injury, 0 = no effect, 100 = complete kill) at 250 g/ha (corn): 60%; Corn plant response rating (crop injury, 0 = no effect, 100 = complete kill) at 500 g/ha (corn): 70%; pest or weed control at 500 g/ha (giant foxtail [3]; [17]): 55%; pest or weed control at 2000 g/ha (giant foxtail [3]; [18]): 80%; pest or weed control at 2000 g/ha (giant foxtail [3]; [19]): 100%; pest or weed control at 500 g/ha (giant foxtail [3]; [20]): 100%; pest or weed control at 62 g/ha (johnsongrass): 70%; pest or weed control at 125 g/ha (johnsongrass): 90%; pest or weed control at 250 g/ha (johnsongrass): 100%; pest or weed control at 500 g/ha (johnsongrass): 100%
